The source of these data is patent publication US12195469B2, “Compounds having PDE9A inhibitory activity, and pharmaceutical uses thereof” (KOREA RESEARCH INSTITUTE OF CHEMICAL TECHNOLOGY, priority 2018, dated 2025).

The target of this assay is PDE9A (Homo sapiens (Human), UniProt O76083). As to the kind of experiment: PDE9A inhibition, fluorescence polarization assay (IMAP-FP screening express kit). The settings on record: Fl-cGMP substrate 100 nM, PDE9A 5 ng/ml, 1 hour at room temperature. Type of assay: biochemical. The procedure: The inhibitory activity of the representative compounds according to the present invention against phosphodiesterase 9A was tested based on the polarization assay (IMAP-FP screening express kit) provided by MDS (MDS Analytical Technologies, Sunyvale, CA, USA). As a buffer solution, a reaction solution (a reaction solution containing 0.01% Tween 20 provided by MDS was diluted 5 times, then 5 mM DTT is added) and a polarization detection solution (binding solution A and B provided by MDS were mixed at a ratio of 3:1 and IMAP binding reagent 1/600 was added) were prepared. 100 μM of the substrate (Fl-cGMP substrate; MDS) and 3.6 μg/ml of the enzyme PDE9A (ab54113; abcam) were prepared. 3.6 μg/ml PDE9A and 100 μM substrate were diluted to 20 ng/ml (final reaction concentration: 5 ng/ml) and 400 nM (final reaction concentration: 100 nM), respectively. The buffer solution used for all dilution and preparation processes was 1× reaction solution with 1 mM DTT added, and the polarization detection solution was used to induce polarization at the end.
PDE9A, sequence (O76083 whole entry): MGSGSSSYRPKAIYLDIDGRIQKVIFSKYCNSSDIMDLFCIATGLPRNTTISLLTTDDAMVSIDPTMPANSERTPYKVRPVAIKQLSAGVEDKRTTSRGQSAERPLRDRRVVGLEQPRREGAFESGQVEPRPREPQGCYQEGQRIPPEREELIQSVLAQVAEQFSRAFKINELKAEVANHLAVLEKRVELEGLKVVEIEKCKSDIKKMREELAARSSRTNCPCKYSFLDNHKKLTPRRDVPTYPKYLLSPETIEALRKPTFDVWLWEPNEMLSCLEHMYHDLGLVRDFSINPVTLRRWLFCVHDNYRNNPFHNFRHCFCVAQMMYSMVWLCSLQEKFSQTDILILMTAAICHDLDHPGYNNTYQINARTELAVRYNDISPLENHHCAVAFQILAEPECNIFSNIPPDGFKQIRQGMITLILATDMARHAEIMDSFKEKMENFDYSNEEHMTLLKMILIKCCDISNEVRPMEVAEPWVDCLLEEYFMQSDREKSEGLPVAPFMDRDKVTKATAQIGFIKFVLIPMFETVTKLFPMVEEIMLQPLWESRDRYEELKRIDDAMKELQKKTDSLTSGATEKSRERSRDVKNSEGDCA
The prepared samples were dispensed on black microplates (Multiwell 384 well plates, #3573, Corning Life Sciences, Lowell, MA, USA) using a 16-channel pipette (multi 16-channel, Finnpipette, Thermo Scientific, Essex, UK). The total reaction volume per well is 20 μl. At this time, 10 μl of 2% DMSO, 5 μl of substrate solution, and 5 μl of reaction solution were used as a negative control, and 10 μl of 2% DMSO, 5 μl of substrate solution, and 5 μl of PDE9A solution were used as a positive control. As the experimental group, 10 μl of the compound prepared in Example, 5 μl of the substrate solution, and 5 μl of the PDE9A solution were used. After pretreatment between the compound and the enzyme was performed for about 10 minutes before the enzyme-substrate reaction, 5 μl of cGMP was added to induce the enzyme reaction. During the reaction, each compound, enzyme, and substrate occupied 50%, 25%, and 25% of the total volume, respectively, and they were prepared at high concentrations of 2, 4, and 4 times, respectively, immediately before addition. After the enzymatic reaction, it was shaken lightly for 1 minute and the enzyme reaction was induced at room temperature for 1 hour. Then, 60 μl of a polarization detection solution prepared in advance was added to induce polarization.
Nanoparticles composed of trivalent metal ions are mixed in the fluorescence detection solution, which combines with phosphoric acid expose by enzymatic reaction to increase the molecular weight and induce polarization. After leaving for 2 hours at room temperature, the polarization (Fluorescence Polarization, FP) value was measured using a multilabel counter (Envision, PerkinElmer, Turku, Finland) (emission wavelength: P-535 nm, S-535 nm, excitation wavelength: 480 nm), and the result was expressed as an IC50 value, which is the concentration of the compound that inhibited PDE9A by 50% in vitro (Table 2).
Regarding `O=c1[nH]c(SCc2nc3cc(F)ccc3o2)nc2c1cnn2-c1ccccc1` [Example 4, 6-(((5-fluorobenzo[d]oxazol-2-yl)methyl)thio)-1-phenyl-1,5-dihydro-4H-pyrazolo[3,4-d]pyrimidin-4-one], the IC50 came out at 83 nM. This lies in the double-digit nanomolar range.
With `O=c1[nH]c(SCc2nc3ccccc3o2)nc2c1cnn2C1CCOCC1` [Example 1, 6-((benzo[d]oxazol-2-ylmethyl)thio)-1-(tetrahydro-2H-pyran-4-yl)-1,5-dihydro-4H-pyrazolo[3,4-d]pyrimidin-4-one] the figure was 5 nM; with `CC(C)(C)c1ccc2oc(CSc3nc4c(cnn4C4CCOCC4)c(=O)[nH]3)nc2c1` [Example 53, 6-(((5-(tert-butyl)benzo[d]oxazol-2-yl)methyl)thio)-1-(tetrahydro-2H-pyran4-yl)-1,5-dihydro-4H-pyrazolo[3,4-d]pyrimidin-4-one], 45 nM; with `Cc1ccc2nc(C(C)Sc3nc4c(cnn4C4CCC(F)(F)CC4)c(=O)[nH]3)oc2c1` (stereo not shown) [Example 22, 1-(4,4-difluorocyclohexyl)-6-((1-(6-methylbenzo[d]oxazol-2-yl)ethyl)thio)-1,5-dihydro-4H-pyrazolo[3,4-d]pyrimidin-4-one], 6 nM.
